The results in this text go back to patent US7691855B2, “Phenyl-[4-(3-phenyl-1h-pyrazol-4-yl)-pyrimidin-2-yl)-amine derivatives” (Novartis AG, priority 2002, dated 2010).

Data set [1] addresses T1, VEGF Receptor (KDR) (Homo sapiens, UniProt P35968).
T1 construct: as in the cited Wood et al. 2000 method
The data set can be described thus: Inhibition of VEGF receptor (KDR) tyrosine kinase activity. It counts as biochemical. The method, then:
The compounds of the present invention are therefore very effective dual inhibitors of EGF- and VEGF-receptor family members. For inhibition of KDR and Flt-1 and inhibition of growth factor-induced proliferation of HUVECS see J. Wood et al., Cancer Res. 60, 2178-2189 (2000). The compounds of formula I inhibit e.g. the KDR tyrosine kinase activity with an IC50 of from about 1 nM to about 1 μM, especially from about 5 nM to about 0.5 μM.
(§1) Inhibition of the tyrosine kinase Activity of EGF-R (HER-1), ErbB-2 (HER-2) and VEGF Receptor (KDR)
(§2) The inhibition tests are carried out as described above.

Data set [2] concerns the target T2, EGF-R (HER-1) (Homo sapiens, UniProt P00533).
T2 construct: using the recombinant intracellular domain of the EGF-receptor [EGF-R ICD
In words: Inhibition of EGF-R (HER-1) tyrosine kinase activity. It counts as biochemical. To be noted: recombinant intracellular domain of the EGF-receptor. The method, then:
J. Biochem. 207, 265-275 (1992)]. Compared with the control without inhibitor, the compounds of formula I inhibit the enzyme activity by 50% (IC50), for example in a concentration of from 0.0005 to 0.5 μM, especially from 0.001 to 0.1 μM.
as §1, §2

Data set [3] concerns the target ErbB-2 (HER-2) (Homo sapiens, UniProt P04626). The data set can be described thus: Inhibition of ErbB-2 (HER-2) tyrosine kinase activity. In kind it is biochemical. The method, then: The inhibitory activity (IC50) is approximately in the range of 0.001 to 0.5 μM. The inhibition of ErbB2 tyrosine kinase (HER-2) can be determined, for example, analogously to the method used for EGF-R protein tyrosine kinase [see C. House et al., Europ. J. Biochem. 140. 363-367 (1984)]. The ErbB-2 kinase can be isolated, and its activity determined, by means of protocols known per se, for example in accordance with T. Akiyama et al., Science 232 1644 (1986).
as §1, §2

pIC50: −log10 of the molar value.

T1 sequence (P35968 834-1162 limits assumed): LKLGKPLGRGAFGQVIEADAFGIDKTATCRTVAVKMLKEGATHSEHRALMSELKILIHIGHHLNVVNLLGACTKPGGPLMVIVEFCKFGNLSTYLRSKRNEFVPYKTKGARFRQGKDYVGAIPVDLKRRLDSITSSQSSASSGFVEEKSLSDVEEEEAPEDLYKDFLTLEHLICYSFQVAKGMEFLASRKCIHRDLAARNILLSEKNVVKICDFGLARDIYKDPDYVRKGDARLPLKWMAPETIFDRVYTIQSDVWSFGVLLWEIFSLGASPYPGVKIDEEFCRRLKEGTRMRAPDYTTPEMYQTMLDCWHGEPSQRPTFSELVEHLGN
T2 sequence (P00533 669-1210 limits assumed): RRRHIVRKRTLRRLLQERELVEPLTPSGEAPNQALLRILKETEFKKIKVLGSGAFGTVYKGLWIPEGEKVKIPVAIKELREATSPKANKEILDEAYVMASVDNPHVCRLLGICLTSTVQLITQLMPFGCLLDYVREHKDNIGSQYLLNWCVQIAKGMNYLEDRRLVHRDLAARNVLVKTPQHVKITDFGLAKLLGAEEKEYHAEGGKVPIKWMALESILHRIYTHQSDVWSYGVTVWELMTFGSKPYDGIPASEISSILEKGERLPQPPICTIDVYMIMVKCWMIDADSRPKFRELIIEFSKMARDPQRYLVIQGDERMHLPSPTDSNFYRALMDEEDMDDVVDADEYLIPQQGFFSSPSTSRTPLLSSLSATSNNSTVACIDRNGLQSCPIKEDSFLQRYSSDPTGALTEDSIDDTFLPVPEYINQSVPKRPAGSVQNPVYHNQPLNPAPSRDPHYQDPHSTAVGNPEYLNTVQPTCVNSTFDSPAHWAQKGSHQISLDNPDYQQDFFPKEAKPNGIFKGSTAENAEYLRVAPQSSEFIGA
ErbB-2 (HER-2), sequence (P04626 23-1255): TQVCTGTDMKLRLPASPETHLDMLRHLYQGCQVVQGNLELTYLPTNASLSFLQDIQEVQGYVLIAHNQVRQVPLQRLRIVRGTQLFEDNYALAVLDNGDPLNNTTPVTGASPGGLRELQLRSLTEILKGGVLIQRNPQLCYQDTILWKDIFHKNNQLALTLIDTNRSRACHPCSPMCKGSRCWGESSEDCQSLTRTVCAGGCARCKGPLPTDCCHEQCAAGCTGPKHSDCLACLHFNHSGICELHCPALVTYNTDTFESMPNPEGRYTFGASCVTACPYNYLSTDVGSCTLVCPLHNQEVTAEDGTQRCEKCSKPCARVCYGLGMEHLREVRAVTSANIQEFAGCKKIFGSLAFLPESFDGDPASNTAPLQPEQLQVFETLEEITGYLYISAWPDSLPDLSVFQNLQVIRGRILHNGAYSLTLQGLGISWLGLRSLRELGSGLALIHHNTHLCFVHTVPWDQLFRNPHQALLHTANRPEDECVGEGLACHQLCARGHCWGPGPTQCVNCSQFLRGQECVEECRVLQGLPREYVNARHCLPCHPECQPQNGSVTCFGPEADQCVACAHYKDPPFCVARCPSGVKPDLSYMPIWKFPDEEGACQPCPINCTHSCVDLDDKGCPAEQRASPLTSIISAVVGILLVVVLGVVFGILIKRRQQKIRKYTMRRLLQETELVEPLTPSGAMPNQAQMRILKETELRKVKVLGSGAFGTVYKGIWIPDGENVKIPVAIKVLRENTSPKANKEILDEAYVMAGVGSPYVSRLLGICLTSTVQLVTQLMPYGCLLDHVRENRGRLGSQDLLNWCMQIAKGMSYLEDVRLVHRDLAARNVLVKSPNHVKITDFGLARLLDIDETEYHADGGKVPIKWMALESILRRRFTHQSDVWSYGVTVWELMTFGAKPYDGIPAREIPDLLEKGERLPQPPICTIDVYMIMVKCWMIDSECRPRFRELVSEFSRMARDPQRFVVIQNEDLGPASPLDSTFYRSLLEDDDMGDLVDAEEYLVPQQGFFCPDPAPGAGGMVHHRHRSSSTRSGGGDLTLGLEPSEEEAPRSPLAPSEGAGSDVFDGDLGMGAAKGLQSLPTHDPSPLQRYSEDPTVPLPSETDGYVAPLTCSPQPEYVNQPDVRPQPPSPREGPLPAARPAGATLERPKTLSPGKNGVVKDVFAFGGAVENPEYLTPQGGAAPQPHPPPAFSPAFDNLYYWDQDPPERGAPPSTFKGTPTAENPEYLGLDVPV

In the case of `Cc1ccc(-c2n[nH]cc2-c2ccnc(Nc3ccc(CN4CCN(C)CC4)cc3)n2)cc1` [Example 60, [4-(4-Methyl-piperazin-1-ylmethyl)-phenyl]-[4-(3-p-tolyl-1H-pyrazol-4-yl)-pyrimidin-2-yl]-amine], the melting point (usually the temperature, or range, at which the solid turns liquid) amounted to 250 °C. For the same molecule, the pIC50 – broadly, the negative decadic logarithm of the IC50, by convention in mol/L – in data set [1] is 8.00. In addition, the pIC50 in data set [2] was 7.70. The pIC50 in data set [3] was 7.36.

As for `Cc1cccc(-c2n[nH]cc2-c2ccnc(Nc3ccc(OCCN(C)C)cc3)n2)c1` [Example 20, [4-(2-Dimethylamino-ethoxy)-phenyl]-[4-(3-m-tolyl-1H-pyrazol-4-yl)-pyrimidin-2-yl]-amine], the values for the negative logarithm of the IC50 (pIC50) in data set [1], in data set [2] and in data set [3] were 8.22, 7.57 and 7.82, respectively.

`CN1CCN(c2ccc(Nc3nccc(-c4c[nH]nc4-c4ccc(Cl)cc4)n3)cc2)CC1` [Example 1, {4-[3-(4-Chloro-phenyl)1H-pyrazol-4yl]-pyrimidin-2-yl}-[4-(4-methyl-piperazin-1-yl)-phenyl]-amine] yielded a melting point of 282 to 284 °C. In data set [1], this molecule showed a pIC50 of 8.00. For the same molecule, the pIC50 in data set [2] was 7.74. Also, in data set [3], the pIC50 is 7.64.

As to `Cc1ccc(-c2n[nH]cc2-c2ccnc(Nc3cccc(OCC4CCN(C)CC4)c3)n2)cc1` [Example 124, [3-(1-Methyl-piperidin-4-ylmethoxy)-phenyl]-[4-(3-p-tolyl-1H-pyrazol-4yl)-pyrimidin-2-yl]-amine], the pIC50 in data set [1] is 8.30; in data set [2], 8.52; in data set [3] it was 7.77.

As for `Cc1cccc(-c2n[nH]cc2-c2ccnc(Nc3ccc(N4CCN(C)CC4)cc3)n2)c1` [Example 18, [4-(4-Methyl-piperazin-1yl)-phenyl]-[4-(3-m-tolyl-1H-pyrazol-4-yl)-pyrimidin-2-yl]-amine], the pIC50 in data set [1] was 8.40; in data set [2] it was 7.68; in data set [3], 7.89.

Regarding `CN(C)CCOc1ccc(Nc2nccc(-c3c[nH]nc3-c3ccc(Cl)cc3)n2)cc1` [Example 2, {4-[3-(4-Chloro-phenyl)-1H-pyrazol-4-yl]-pyrimidin-2-yl}-[4-(2-dimethyl-amino-ethoxy)-phenyl]-amine], the pIC50 is 7.68 in data set [1], 7.66 in data set [2] and 7.72 in data set [3].

Consider `COc1cc(Nc2nccc(-c3cnn(CCN(C)C)c3-c3ccc(Cl)cc3)n2)cc(OC)c1OC` [Example 71, {4-[5-(4-Chloro-phenyl)-1-(2-dimethylamino-ethyl)-1H-pyrazol-4-yl]-pyrimidin-2-yl}-(3,4,5-trimethoxy-phenyl)-amine], for which the melting point was 153 °C.

As for `CN1CCN(c2ccc(Nc3nccc(-c4cn(C)nc4-c4ccc(Cl)cc4)n3)cc2)CC1` [Example 91, {4-[3-(4-Chloro-phenyl)1-methyl-1H-pyrazol-4yl]-pyrimidin-2-yl}-[4-(4-methyl-piperazin-1-yl)-phenyl]-amine], the pIC50 in data set [1] was 7.55; in data set [2], 7.74; in data set [3], 7.38.

As for `CCN1CCN(c2ccc(Nc3nccc(-c4c[nH]nc4-c4ccc(C)cc4)n3)cc2)CC1` [Example 109, [4-(4-Ethyl-piperazin-1-yl)-phenyl]-[4-(3-p-tolyl-1H-pyrazol-4yl)-pyrimidin-2-yl]-amine], the melting point was found to be 280 °C. The molecule also showed a pIC50 in data set [1] of 8.52. For the same molecule, the pIC50 in data set [2] was 7.80. In addition, the pIC50 in data set [3] is 7.47.

As to `COc1cccc(Nc2nccc(-c3cnn(CCN(C)C)c3-c3ccc(Cl)cc3)n2)c1` [Example 75, {-4-[5-(4Chloro-phenyl)-1-(2-dimethylamino-ethyl)-1H-pyrazol-4-yl]-pyrimidin-2-yl}-(3-methoxy-phenyl)-amine], the melting point came to 118 °C.

On to `CN(C)CCOc1ccc(Nc2nccc(-c3c[nH]nc3-c3ccc(Cl)c(Cl)c3)n2)cc1` [Example 21, {4-[3-(3,4-Dichloro-phenyl)-1H-pyrazol-4-yl]-pyrimidin-2-yl}-[4-(2-dimethylamino-ethoxy)-phenyl]-amine], for which the pIC50 in data set [1] is 7.82; in data set [2] it was 7.54; in data set [3], 7.80.

As for `CCN1CCN(Cc2ccc(Nc3nccc(-c4c[nH]nc4-c4ccc(C)cc4)n3)cc2)CC1` [Example 101, [4-(4-Ethyl-piperazin-1-ylmethyl)-phenyl]-[4-(3-p-tolyl-1H-pyrazol-4)-pyrimidin-2-yl]-amine], the figures for the pIC50 in data set [1], in data set [2] and in data set [3] were 8.40, 7.89 and 7.55, respectively.

With `COc1ccc(Nc2nccc(-c3cnn(CCN(C)C)c3-c3ccc(Cl)cc3)n2)cc1OC` [Example 73, {4-[5-(4-Chloro-phenyl)-1-(2-dimethylamino-ethyl)-1H-pyrazol-4-yl]-pyrimidin-2-yl}-(3,4-dimethoxy-phenyl)-amine], the melting point stood at 157 °C.

In the case of `COc1ccc(Nc2nccc(-c3c[nH]nc3-c3ccc(Cl)cc3)n2)cc1OC` [Example 68, {4-[3-(4-Chloro-phenyl)-1H-pyrazol-4yl]-pyrimidin-2-yl}-(3,4-dimethoxy-phenyl)-amine], the melting point was found to be 261 °C.

In the case of `Clc1ccc(-c2n[nH]cc2-c2ccnc(Nc3ccc(-c4nnn[nH]4)cc3)n2)cc1` [Example 116, {4-[3-(4-Chloro-phenyl)-1H-pyrazol-4-yl]-pyrimidin-2-yl}-[4-(1H-tetrazol-5-yl)-phenyl]-amine], the melting point was 369 °C. In data set [1], the pIC50 was 7.68. For the same molecule, the pIC50 in data set [2] was 8.05. In data set [3], the negative logarithm of the IC50 (pIC50) is > 8.00.

In turn, `Cc1ccc(-c2nn(C)cc2-c2ccnc(Nc3ccc(CN4CCN(C)CC4)cc3)n2)cc1` [Example 66, [4-(4-Methyl-piperazin-1-ylmethyl)-phenyl]-[4-(1-methyl-3-p-tolyl-1H-pyrazol-4-yl)-pyrimidin-2-yl]-amine] yielded a melting point of 151 °C.

`Cc1ccc(-c2c(-c3ccnc(Nc4ccc(CN5CCN(C)CC5)cc4)n3)cnn2CCN(C)C)cc1` [Example 82, {4-[1-(2-Dimethylamino-ethyl)-5-p-tolyl-1H-pyrazol-4-yl]-pyrimidin-2-yl}-[4-(4 methyl-piperazin-1-ylmethyl)-phenyl]-amine]: the melting point stood at 123 °C.

As to `Cc1ccc(-c2c(-c3ccnc(Nc4ccc(N5CCN(C)CC5)cc4)n3)cnn2C)cc1` [Example 63, [4-(4-Methyl-piperazin-1-yl)-phenyl]-[4-(1-methyl-5-p-tolyl-1H-pyrazol-4-yl)-pyrimidin-2-yl]-amine], the melting point was 261 °C.

Turning to `CCN1CCN(Cc2ccc(Nc3nccc(-c4c[nH]nc4-c4ccc(Cl)cc4)n3)cc2)CC1` [Example 114, {4-[3-(4-Chloro-phenyl)-1H-pyrazol-4yl]-pyrimidin-2-yl}-[4-(4-ethyl-piperazin-1-ylmethyl)-phenyl]-amine], the melting point stood at 247 °C.

Molecule `CN1CCN(c2ccc(Nc3nccc(-c4c[nH]nc4-c4ccccc4Cl)n3)cc2)CC1` [Example 52, {4-[3-(2-Chloro-phenyl)-1H-pyrazol-4-yl]-pyrimidin-2-yl}-[4-(4-methyl-piperazin-1-yl)-phenyl]-amine] gave a melting point of 310 °C.

On to `COc1cc(Nc2nccc(-c3c[nH]nc3-c3ccc4c(c3)OCO4)n2)cc(OC)c1OC` [Example 46, [4-(3-Benzo[1,3]dioxol-5-yl-1H-pyrazol-4-yl)-pyrimidin-2-yl]-(3,4,5-trimethoxy-phenyl)-amine], for which the figures for the pIC50 in data set [1], in data set [2] and in data set [3] were 8.52, 7.55 and 8.22, respectively.

With `Cc1ccc(-c2n[nH]cc2-c2ccnc(Nc3ccc(C(=O)O)cc3)n2)cc1` [Example 58, 4-[4-(3-p-Tolyl-1H-pyrazol-4-yl)-pyrimidin-2-ylamino]-benzoic acid], the melting point turned out to be 341 °C.

Regarding `CN1CCC(n2cc(-c3ccnc(Nc4ccc(CN5CCN(C)CC5)cc4)n3)c(-c3ccc(Cl)cc3)n2)CC1` [Example 80, {4-[3-(4-Chloro-phenyl)-1-(1-methyl-piperidin-4-yl)-1H-pyrazol-4yl]-pyrimidin-2-yl}-[4-(4-methyl-piperazin-1-yl-methyl)-phenyl]-amine], the melting point stood at 164 °C.
